Source: ChEMBL document CHEMBL1140560, “Potent, selective spiropyrrolidine pyrimidinetrione inhibitors of MMP-13” (Bioorg Med Chem Lett, 2007)
Values joined by “and” are separate entries in the source; they are usually repeats but may differ in a detail not shown here. Identical values can stand only once.

What was measured:
Collagenase 3 [1] = biological target: T1, Collagenase 3 (Homo sapiens, UniProt P45452); experiment: Inhibition of MMP13
[2] = Chemical stability assessed as half life in phosphate buffer saline at pH 7.2; type: physicochemical; settings: phosphate buffered saline
Collagenase 3 [3] = biological target: T1, Collagenase 3; experiment: Inhibition of MMP13-mediated bovine nasal cartilage degradation assessed as hydroxyprole release; type: functional, tissue-based
Rattus norvegicus [4] = experiment: Toxicity in rat assessed as induction of fibroplasia at 800 mg/kg, bid; type: organism-based; design: dose 800 mg/kg; settings: in vivo
Rattus norvegicus [5] = experiment: Toxicity in rat assessed as induction of fibroplasia at 100 mg/kg, bid; type: organism-based; design: dose 100 mg/kg; settings: in vivo
Rattus norvegicus [6] = experiment: Toxicity in rat assessed as induction of fibroplasia at 300 mg/kg, bid; type: organism-based; design: dose 300 mg/kg; settings: in vivo
Hamster = experiment: Inhibition of human MMP13-induced cartilage damage in hamster at 10 mg/kg, po; type: functional; settings: Cricetinae
[7] = Cmax in rat at 300 mg/kg, bid; type: ADME, organism-based; design: dose 300 mg/kg; settings: in vivo
[8] = plasma Clearance in rat; type: ADME, organism-based
[9] = Cmax in rat at 800 mg/kg, bid; type: ADME, organism-based; design: dose 800 mg/kg; settings: in vivo
Rattus norvegicus [10] = experiment: Toxicity in rat assessed as induction of fibroplasia at 30 mg/kg, bid; type: organism-based; design: dose 30 mg/kg; settings: in vivo
[11] = Half life in rat; type: ADME, organism-based; settings: in vivo
[12] = Volume of distribution at steady state in rat; type: ADME, organism-based; settings: in vivo, read-out: Vdss

Compound	IC50 (Collagenase 3 [1])	other results
CCOCCC1(Oc2ccc(Oc3ccc(-c4nc(-c5cccc(F)c5)co4)cc3)cc2)C(=O)NC(=O)NC1=O	0.35 nM	
CCOCCC1(Oc2ccc(Oc3ccc(-c4nc(-c5cccc(C#N)c5)co4)cc3)cc2)C(=O)NC(=O)NC1=O	0.52 nM	
CCOCCC1(Oc2ccc(Oc3ccc(-c4nc(-c5ccc(C#N)cc5)co4)cc3)cc2)C(=O)NC(=O)NC1=O	0.43 nM	
CCOCCC1(Oc2ccc(Oc3ccc(F)cc3)cc2)C(=O)NC(=O)NC1=O	0.6 nM	
CCOCCC1(Oc2ccc(Oc3ccc(-c4nc5ccccc5[nH]4)cc3)cc2)C(=O)NC(=O)NC1=O	0.49 nM	
O=C1NC(=O)C2(CCCC(=O)N2c2ccc(Oc3ccc(F)cc3)nc2)C(=O)N1	11.7 nM	
O=C1NC(=O)C2(CNC(=O)N2c2ccc(Oc3ccc(F)cc3)nc2)C(=O)N1	15.1 nM	
CCOCCC1(Oc2ccc(Oc3ccc(-c4nc5ccc(Cl)cc5[nH]4)cc3)cc2)C(=O)NC(=O)NC1=O	0.96 nM	
O=C1NC(=O)C2(CCCN2c2ccc(Oc3ccc(-c4nc5ccc(Cl)cc5[nH]4)cc3)nc2)C(=O)N1	0.1 nM	
CN1CC2(C(=O)NC(=O)NC2=O)N(c2ccc(Oc3ccc(F)cc3)nc2)C1=O	12 nM	
O=C1NC(=O)C2(CCC(=O)N2c2ccc(Oc3ccc(F)cc3)nc2)C(=O)N1	3.49 nM	half-life [2]: 91.2 h
O=C1NC(=O)C2(CCS(=O)(=O)N2c2ccc(Oc3ccc(F)cc3)nc2)C(=O)N1	138 nM	half-life [2]: 26.4 h
O=C1NC(=O)C2(CCCN2c2ccc(Oc3ccc(-c4nc(-c5ccccc5F)co4)cc3)nc2)C(=O)N1	0.16 nM	
CCOCCC1(Oc2ccc(Oc3ccc(-c4nc5ccc(F)cc5[nH]4)cc3)cc2)C(=O)NC(=O)NC1=O	0.4 nM	
O=C1NC(=O)C2(CCCN2c2ccc(Oc3ccc(-c4nc(-c5cccc(F)c5)co4)cc3)nc2)C(=O)N1	0.09 nM	
O=C1NC(=O)C2(CCCN2c2ccc(Oc3ccc(-c4nc5ccc(F)cc5[nH]4)cc3)nc2)C(=O)N1	0.08 nM	
N#Cc1ccc(-c2coc(-c3ccc(Oc4ccc(N5CCCC56C(=O)NC(=O)NC6=O)cn4)cc3)n2)cc1	0.05 nM	
N#Cc1cccc(-c2coc(-c3ccc(Oc4ccc(N5CCCC56C(=O)NC(=O)NC6=O)cn4)cc3)n2)c1	0.11 nM	
CCOCCC1(Oc2ccc(Oc3ccc(F)cc3)nc2)C(=O)NC(=O)NC1=O	8.9 nM	
CCOCCC1(Nc2ccc(Oc3ccc(F)cc3)nc2)C(=O)NC(=O)NC1=O	2.9 nM	
O=C1NC(=O)C2(CCCN2c2ccc(Oc3ccc(-c4nc(-c5ccc(F)cc5)co4)cc3)nc2)C(=O)N1	0.12 nM	IC50 (Collagenase 3 [3]): 12 nM; Activity (Rattus norvegicus [4]): Toxic; Activity (Rattus norvegicus [5]): Non-toxic; Activity (Rattus norvegicus [6]): Toxic; inhibition in vivo at 10 mg/kg (Hamster): > 80%; Cmax [7]: 63 µg/mL; clearance [8]: 3.9 mL/min/kg; Cmax [9]: 52 µg/mL; Activity (Rattus norvegicus [10]): Non-toxic; half-life [11]: 4.5 h; Vd [12]: 1.3 L/kg
O=C1NC(=O)C2(CCCN2c2ccc(Oc3ccc(-c4nc5ccccc5[nH]4)cc3)nc2)C(=O)N1	0.11 nM	
O=C1NC(=O)C2(CCCN2c2ccc(Oc3ccc(F)cc3)nc2)C(=O)N1	1.6 nM and 1.57 nM	
CC1(C)CC2(C(=O)NC(=O)NC2=O)N(c2ccc(Oc3ccc(F)cc3)nc2)C1=O	7.33 nM	half-life [2]: 67.2 h
O=C1NC(=O)C2(CCCN2c2ccc(Oc3ccc(Br)cc3)nc2)C(=O)N1	0.6 nM	half-life [2]: > 24000 h
